Assay results published in ChEMBL document CHEMBL5724914, “Linking interpersonal differences in gut microbiota composition and drug biotransformation activity” (2024).

Legend:
[1] = (§1) The drug is tested on WLS-086 corresponding to human gut metagenome with ENA study accession number: PRJEB37062 and ENA sample accession number: ERS12561752 for biotransformation under anaerobic condition. The drug concentrations were measured over 9 timepoints collected between 0 and 24 hours of incubation by liquid-chromatography-coupled mass spectrometry (LC–MS); settings: 2 µM
[2] = human gut metagenome, 24 h, 2 µM
[3] = as §1, with “Z-007” for “WLS-086”, “rat” for “human”, “ERS12561807” for “ERS12561752”; settings: 2 µM
[4] = human gut metagenome, 24 h, 2 µM; remark: listed apart in the source
[5] = as §1, with “WLS-350” for “WLS-086”, “ERS12561789” for “ERS12561752”; settings: 2 µM
[6] = as §1, with “Z-029” for “WLS-086”, “rat” for “human”, “ERS12561828” for “ERS12561752”; settings: 2 µM
[7] = human gut metagenome, 24 h, 2 µM; remark: listed apart in the source
[8] = as §1, with “Z-008” for “WLS-086”, “to” for “to human gut”, “ERS12561808” for “ERS12561752”; settings: 2 µM
[9] = as §1, with “Z-012” for “WLS-086”, “to” for “to human gut”, “ERS12561812” for “ERS12561752”; settings: 2 µM
[10] = human gut metagenome, 24 h, 2 µM; remark: listed apart in the source
[11] = as §1, with “Z-024” for “WLS-086”, “pig” for “human”, “ERS12561823” for “ERS12561752”; settings: 2 µM
[12] = human gut metagenome, 24 h, 2 µM; remark: listed apart in the source
[13] = human gut metagenome, 24 h, 2 µM; remark: listed apart in the source
[14] = as §1, with “Z-023” for “WLS-086”, “to” for “to human gut”, “ERS12561822” for “ERS12561752”; settings: 2 µM
[15] = as §1, with “WLS-069” for “WLS-086”, “ERS12561748” for “ERS12561752”; settings: 2 µM
[16] = as §1, with “Z-003” for “WLS-086”, “pig” for “human”, “ERS12561803” for “ERS12561752”; settings: 2 µM
[17] = human gut metagenome, 24 h, 2 µM; remark: listed apart in the source
[18] = human gut metagenome, 24 h, 2 µM; remark: listed apart in the source
[19] = human gut metagenome, 24 h, 2 µM; remark: listed apart in the source
[20] = human gut metagenome, 24 h, 2 µM; remark: listed apart in the source
Also: call rule not given here.

Row | Bacterial Biotransformation [1] | Bacterial Biotransformation [2] | Bacterial Biotransformation [3] | Bacterial Biotransformation [4] | Bacterial Biotransformation [5] | Bacterial Biotransformation [6] | Bacterial Biotransformation [7] | Bacterial Biotransformation [8] | Bacterial Biotransformation [9] | Bacterial Biotransformation [10] | Bacterial Biotransformation [11] | Bacterial Biotransformation [12] | Bacterial Biotransformation [13] | Bacterial Biotransformation [14] | Bacterial Biotransformation [15] | Bacterial Biotransformation [16] | Bacterial Biotransformation [17] | Bacterial Biotransformation [18] | Bacterial Biotransformation [19] | Bacterial Biotransformation [20] | Compound
1 | Compound metabolized | Compound metabolized | Compound NOT metabolized | Compound metabolized | Compound metabolized | Compound NOT metabolized | Compound metabolized | Compound NOT metabolized | Compound NOT metabolized | Compound metabolized | Compound metabolized | Compound metabolized | Compound metabolized | Compound NOT metabolized | Compound metabolized | Compound metabolized | Compound NOT metabolized | Compound NOT metabolized | Compound metabolized | Compound metabolized | CCN(CC)CCNC(C(=O)OCCC(C)C)c1ccccc1.Cl.Cl (stereo not given)
2 | Compound metabolized | Compound metabolized | Compound NOT metabolized | Compound metabolized | Compound metabolized | Compound NOT metabolized | Compound NOT metabolized | Compound NOT metabolized | Compound NOT metabolized | Compound metabolized | Compound NOT metabolized | Compound metabolized | Compound NOT metabolized | Compound metabolized | Compound metabolized | Compound metabolized | Compound metabolized | Compound metabolized | Compound metabolized | Compound metabolized | CCCC(=O)Nc1ccc(OCC(O)CNC(C)C)c(C(C)=O)c1 (stereo not given) [ACEBUTOLOL]
3 | Compound metabolized | Compound NOT metabolized | Compound NOT metabolized | Compound NOT metabolized | Compound NOT metabolized | Compound NOT metabolized | Compound NOT metabolized | Compound NOT metabolized | Compound NOT metabolized | Compound NOT metabolized | Compound metabolized | Compound NOT metabolized | Compound NOT metabolized | Compound metabolized | Compound NOT metabolized | Compound metabolized | Compound NOT metabolized | Compound NOT metabolized | Compound NOT metabolized | Compound metabolized | C=CCc1ccccc1OCC(O)CNC(C)C (stereo not given) [ALPRENOLOL]
4 | Compound metabolized | Compound metabolized | Compound NOT metabolized | Compound NOT metabolized | Compound metabolized | Compound NOT metabolized | Compound metabolized | Compound NOT metabolized | Compound NOT metabolized | Compound metabolized | Compound NOT metabolized | Compound metabolized | Compound metabolized | Compound NOT metabolized | Compound metabolized | Compound metabolized | Compound metabolized | Compound NOT metabolized | Compound metabolized | Compound metabolized | CC(C)c1c(C(=O)Nc2ccccc2)c(-c2ccccc2)c(-c2ccc(F)cc2)n1CC[C@@H](O)C[C@@H](O)CC(=O)O [ATORVASTATIN]
5 | Compound metabolized | Compound NOT metabolized | Compound metabolized | Compound metabolized | Compound metabolized | Compound metabolized | Compound metabolized | Compound metabolized | Compound metabolized | Compound metabolized | Compound metabolized | Compound metabolized | Compound metabolized | Compound metabolized | Compound metabolized | Compound metabolized | Compound NOT metabolized | Compound metabolized | Compound metabolized | Compound metabolized | CCOC(=O)[C@H](CCc1ccccc1)N[C@H]1CCc2ccccc2N(CC(=O)O)C1=O [BENAZEPRIL]
6 | Compound NOT metabolized | Compound NOT metabolized | Compound NOT metabolized | Compound NOT metabolized | Compound NOT metabolized | Compound NOT metabolized | Compound NOT metabolized | Compound NOT metabolized | Compound NOT metabolized | Compound NOT metabolized | Compound metabolized | Compound NOT metabolized | Compound NOT metabolized | Compound metabolized | Compound NOT metabolized | Compound NOT metabolized | Compound NOT metabolized | Compound NOT metabolized | Compound NOT metabolized | Compound NOT metabolized | NS(=O)(=O)c1cc2c(cc1Cl)N=C(CSCc1ccccc1)NS2(=O)=O [BENZTHIAZIDE]
7 | Compound metabolized | Compound NOT metabolized | Compound NOT metabolized | Compound NOT metabolized | Compound NOT metabolized | Compound NOT metabolized | Compound metabolized | Compound NOT metabolized | Compound NOT metabolized | Compound metabolized | Compound metabolized | Compound NOT metabolized | Compound NOT metabolized | Compound metabolized | Compound NOT metabolized | Compound metabolized | Compound NOT metabolized | Compound NOT metabolized | Compound metabolized | Compound metabolized | CC(C)NCC(O)COc1ccc(COCCOC(C)C)cc1.CC(C)NCC(O)COc1ccc(COCCOC(C)C)cc1.O=C(O)/C=C/C(=O)O (stereo not given) [BISOPROLOL FUMARATE]
8 | Compound metabolized | Compound metabolized | Compound NOT metabolized | Compound metabolized | Compound metabolized | Compound metabolized | Compound metabolized | Compound NOT metabolized | Compound metabolized | Compound metabolized | Compound metabolized | Compound metabolized | Compound metabolized | Compound metabolized | Compound metabolized | Compound metabolized | Compound NOT metabolized | Compound metabolized | Compound metabolized | Compound metabolized | CCCCCOC(=O)Nc1nc(=O)n([C@@H]2O[C@H](C)[C@@H](O)[C@H]2O)cc1F [CAPECITABINE]
